Laboratory results as given in patent US10213425B2, “Role of N-2-hydroxy-ethyl-piperazine-N′-2-ethane sulfonic acid (HEPES) in pain control and reversal of demyelinization injury” (Bespoke Bioscience, LLC, priority 2009, dated 2019).

Key:
[1] = General clinical administration of HEPES: effective dosage and tolerability; assay type: in vivo, human
Procedure: The product, HEPES, is produced in ultra-pure form and is available from GIBCOL Technologies, Inc. The product is administered on a body weight basis with the determined minimal effective daily dosage of 70-75 mg/kg. The material may be safely given either by oral or parenteral routes. […] The administered product is prepared by a compounding pharmacist, with the dosage of each patient recipient being individualized.

[2] = tested on: Post Chemotherapy Cognitive Impairment (PCCI); test: Clinical case, post chemotherapy cognitive impairment (Example 3); assay type: in vivo, human; conditions: PCCI patient, oral 5,000 mg daily in divided doses, after a month
Source text: patient two is a person who, prior to their diagnosis of breast cancer, has been in charge of the family business involving a host of necessary transactions, including maintenance of financial records and tax liabilities. Post chemotherapy they had profound difficulty remembering what day it was, what time it was, had they taken their morning bath, what to cook for any meal, forgetfulness as to daily chores, transporting their children to school-sponsored events, suddenly breaking telephone conversations with their concerned parent without any recall of the action. The major deficit business-wise was the inability to perform simple mathematical calculations. […] They thought they “was going bonkers!” Their parent inquired as to what could be done to alleviate the rapidly deteriorating family problems. A trial on HEPES was recommended as the symptoms were, at least in part, related to demyelination. They were started on oral HEPES, 5,000 mg daily in divided doses. […] They continue to show improvement in a gratifying manner.

[3] = tested on: Pediatric Autoimmune Neurological Disease Associated with Strep (PANDAS); test: Clinical case, Pediatric Autoimmune Neurological Disease Associated with Strep (PANDAS) (Example 7); assay type: in vivo, human; conditions: for frequency of athetotic movements: intravenous
[4] = tested on: Benzodiazepine Withdrawal Symptoms; test: Clinical case, benzodiazepine withdrawal symptoms (Example 8); assay type: in vivo, human
Source text: patient five is a person, who was initially placed on benzodiazepine medication for panic attacks which presented. They have been on various forms of medications constituting this group for more than three decades. The dilemma which exists is that often the original condition for which the diazepines are prescribed are considered to be psychiatric in nature. When pain and neurological symptoms appear associated with withdrawal, it is often misdiagnosed with additional medications given which compounds the problem. These medications are recommended for short term treatment (4-6 weeks) only, but as with this patient, usage extends over years. One of the major withdrawal symptoms include violent repetitive “tics” which are considerably worsened with emotional situations and other stressors. Abnormal ideation often takes the form of bizarre thoughts as the functioning of the superego is marked impaired. Thus, these patients do things which under normal conditions would never contemplate, much less act out. As a result of these factors, our patient lost their successful business, their houses, and their family comprised of their spouse and three beautiful daughters. They walk with a hopping motion associated with bizarre flailing movements of the shoulder and arms. On the internet are listings of more than 300 withdrawal symptoms. The present inventors were consulted on this patient to see if we could ameliorate their extreme pain problems. Their neurologic examination was truly strange. […] They were started on HEPES by the oral route. […] They will be closely monitored as to their condition with additional treatment.

Cerebral Palsy = test: Clinical case, cerebral palsy patient (Example 2); assay type: in vivo, human; conditions: oral 5,000 mg daily
Source text: patient five is a child of extraction, whose birthing was extremely difficult, and very probably associated with some degree of neonatal asphyxia, although this was not seriously reflected in the Apgar Score. The person has had superb medical care all their life long with loving and supportive parents able to provide recommended therapies.
Despite the abundance of treatment programs, it required nearly five years for […] to walk slowly in an unassisted manner. Amazingly, their speech pattern and intellectual capabilities were remarkably functional. A major problem was their significant dysfunction with motor skills in their hands. M.S. was given an oral dosage of HEPES of 5,000 mg daily (2 tsps with breakfast, 1 tsp mid-afternoon, and 2 tsps at bedtime). […] After 8 months of therapy, their walking and manual skills have improved to 85% of normal. They became devoted to spending several hours daily on the computer and the amount of knowledge they have acquired and retained is, indeed, phenomenal. The change in this young person has been outstanding and truly gratifying to their parents, their siblings, and especially their physicians.

[5] = tested on: cell cultures of both animal and human origin; conditions: studies not specified; cited from earlier work
Parkinson's Disease = test: Clinical cases, Parkinson's Disease patients (Examples 4 and 5); assay type: in vivo, human
Source text: […] The family history is positive. They have been tried on a variety of Parkinsonian medications, the beneficial actions of which seem to disappear within a few months.
The hand tremor was present only to a small degree, but the head tremors and tics were very prominent to the degree that […] would become nauseated if […] kept […] vision pinpointed.
patient one is a person who has had Parkinsonian symptoms since they were […]. They were placed on levo-dopa with gradual increases to six per day along with large doses of Mirapex and polyethylene glycol for their problem with constipation. Their constipation was really quite intractable with abdominal distention and protrusion, nausea and vomiting. Also very worrisome was their diminished deglutitionary activity and tongue biting with oral bleeding. They were unable to stand without assistance and their hesitant walk favored the festinative aspects. […] Over time the daily dosage of levodopa was reduced from the prescribed 6 per day to 2 per day to which a small dose of the dopamine agonist, bromocriptine, was added with singularly beneficial results. Their condition improved to the extent that they were again able to drive themself to the store, buy gasoline, and eat out. Most, most gratifying, indeed!
They were placed on an active bowel treatment program with good results which, when required was supplemented with an enema q.o.d. They continued to be monitored closely.

[6] = tested on: Chronic Inflammatory Demyelinating Polyradiculoneuropathy (CIDP); test: Clinical case, Chronic Inflammatory Demyelinating Polyradiculoneuropathy (Example 9); assay type: in vivo, human; conditions: daily oral product, after three weeks
Source text: patient three is a person who presents with a history of multiple allergies, infections (including viral meningitis/aseptic encephalitis), multiple episodes of antibiotic treatments, etc. They describe their physical status historically as follows: “I have been seriously ill since 1991 with progressive neurologic deficits, which culminated with significant loss of motor control in 1993. The condition was misdiagnosed as Multiple Sclerosis with negative findings on Mill.” They initially ambulated slowly with the use of a cane. In 1994 they were paralyzed from the neck down. They were treated with Ig intravenously and recovered over a period of weeks. Five months later, they experienced a similar episode. This time the Ig therapy was only weakly helpful, and they as treated with therapeutic plasma exchanges every two weeks. They have recently been experiencing significant pains in their extremities and HEPES was started orally both for pain control and possible reinforcement of any myelinating defects, as our medical colleagues in the Netherlands have had significant success in reversing the demyelination process.

Multiple Sclerosis = test: Clinical case, Multiple Sclerosis patient (Example 1); assay type: in vivo, human; conditions: MS patient
Source text: patient four is a public elementary school teacher, who was diagnosed with MS when they were […].
Mentally, they often experienced periods of lack of concentration and follow-through of immediate projects, generalized muscular stiffness and lack of fine motor coordination with episodes of lurching gait and imbalance. Very bothersome was their manual discoordination which adversely influenced their writing on the chalk board. Indeed, the symptoms were so frequent that their teaching contract was not renewed. They subsequently obtained employment at an academically excellent small Episcopal school where the classes were small and the stress level was considerably less compared with the public school system.
Despite these changes of venue, they had more frequent exacerbations and remissions and experienced multiple medication programs with their very concerned neurologist physician. They continued to use block letters on the blackboard rather than cursive black-board writing as a form of communicating with their students.
After a particularly severe episode of problems, they completely lost the ability to write (e.g., writing a payment check) owing to the loss of manual sensory function and erratic motor movements. The present inventors were asked to see them by the school administrator, who served as their friend and confidant. […]

Cancer of the Pancreas = test: Clinical case, cancer of the pancreas with metastases: analgesic and anti-tumor activity (Example 6); assay type: in vivo, human
Procedure: The pain was not relieved by passing bowel movements or any other maneuver. They were seen by their personal physician, who diagnosed Type II diabetes mellitus. They were placed on anti-diabetic medication and diet. No additional studies related to the abdominal pain were carried out, even though they were peculiar in a patient with diabetes. Their diabetic state was under satisfactory control with a few weeks, but the abdominal pain problem persisted.
The abdominal pains increased in intensity with new severe pains in the mid-dorsal thoracic spine. […] They underwent radiation treatments for the thoracic lesions which eased, to a limited extent, the pain in this area.
In consultation with the patient ombudsmen group at M. D. Anderson Hospital in Houston, Tex., the family was told that none of the current study protocols were appropriate for their current condition of cancer of the pancreas with wide-spread metastases and such advanced disease. They were given 2-4 months to live. It was recommended that they be treated with pain protocols by the local institutions in the Dallas-Fort Worth area. They were treated by their personal physician who placed them on opiate analgesics for pain control.
In February, 2006, their personal physician contacted the present inventors concerning the possible addition of HEPES as they were receiving the maximal level of opiate medication, which was not controlling the pain the patient was experiencing. In March, 2006, they were placed on a daily dosage of the product administered by intravenous infusion, while continuing their maximum opiate analgesic medication.
In July, 2006, they developed significant anorexia, probably secondary to the increasing levels of endogenous TNF-alpha (cachectic factor). Dronabinol was recommended, but refused by the patient owing to the medication being derived from marijuana. Thereafter, natural source inhibitors of cachectic factor (Table 2) were recommended, but the patient refused to take any of these as they felt these might interfere with the pain control, which was acceptable. They were then offered parenteral nutritional support, which they declined.
From mid-November, 2006, […] developed weakness associated with continued weight loss, and from late November became bed-ridden. […] 2006. While the death certificate lists the cause of death as cancer of the pancreas, in truth the cause of death was terminal anorexia, inanition, and malnutrition, with more than 65 pound weigh loss.

[7] = continued daily product at 75 mg/kg
[8] = Example 5 patient, 6,000 mg daily, continued treatment

O=S(=O)(O)CCN1CCN(CCO)CC1 [HEPES, N-2-hydroxyethylpiperazine-N′-2-ethanesulfonic acid]
minimal effective daily dosage ([1]; administered on a body weight basis): 70 to 75 mg/kg
side-effects ([1]; general statement on the HEPES product): no side-effects
side-effects ([1]; oral and parenteral routes): without any significant side-effects
brain fog ("cloud") [2]: the “cloud” was gone
frequency of athetotic movements ([3]; 70-75 mg/kg level achieved, end of the first week, 1,300-1,500 per day before): 10-15 per day
frequency of athetotic movements ([3]; end of the second week): 2-3 movements per day
involuntary athetoid movements ([3]; oral medication at the same daily dosage, during the next three weeks, triggered by emotional or stressful circumstances): infrequent involuntary athetoid movements
tics after product withdrawn ([3]; product decreased gradually, no product being given): tic-free
athetoid movements [4, 7]: significant reduction in their athetoid movements
gait [4, 7]: improved gait
ideation [4, 7]: more cogent ideation
pain (jaws and teeth, shoulder joints and muscles, precordial chest, temples) [4, 7]: significant relief of their pain
dorsiflexion of left foot on neurologic examination ([4]; oral route, after four days on the product): normal dorsiflexion of their left foot
walking and manual skills (Cerebral Palsy; after 8 months of therapy): 85 % of normal
movement and control of hands and fingers (Cerebral Palsy; after three weeks): improved to the point where they could selectively (upon oral command) depress the correct key on the computer
walking pattern (Cerebral Palsy; after three weeks): considerable improvement with significant reduction in ataxic characteristics
cytotoxicity compared with other buffers [5]: least cytotoxicity of all the known buffers
muscular fatigue, stiffness, and tics (Parkinson's Disease; Example 4 patient, 5,000 mg daily in divided doses, within a three-week period): all disappeared
patient-reported overall condition (Parkinson's Disease; Example 4 patient, 5,000 mg daily, after another couple of weeks): felt like they were before the diagnosis was made
daily dosage of levodopa needed (Parkinson's Disease; Example 5 patient, 6,000 mg HEPES daily, over time, reduced from the prescribed 6 per day, bromocriptine added): 2 per day
swallowing difficulties and tongue biting (Parkinson's Disease; Example 5 patient, 6,000 mg daily in divided doses, within three days): obviated their swallowing difficulties and abrogated their tongue biting
energy level (Parkinson's Disease; [8]): improved significantly
facial mask (Parkinson's Disease; [8]): completely disappeared
pain in extremities [6]: completely controlled
weakness in lower extremities [6]: almost completely resolved
motor function and exacerbations on continued medication (Multiple Sclerosis; continued on the oral medication): maintained their motor function as well as being free of new exacerbations
ability to write (Multiple Sclerosis; oral HEPES 5,000 mg daily, after only three days of treatment): regained the ability to write cursively and sign their name in a legible fashion
opiate side-effects (Cancer of the Pancreas; HEPES administration with reduced opiate narcotic analgesia): elimination of opiate side-effects
opiate analgesic dosage giving good pain control (Cancer of the Pancreas; daily intravenous HEPES, narcotic medication slowly reduced over three months): about 25 % of the maximum dosage of the opiate analgesics
pain (Cancer of the Pancreas; daily intravenous infusion added to maximum opiate analgesic medication, after 5 days): completely controlled
anti-tumor effect (Cancer of the Pancreas; pancreatic cancer with wide-spread metastases, several additional months of quality living): a significant anti-tumor effect
